Test systems include ACHN renal; DLD-1 colon; HCT-15 colon; LOX IMVI melanoma; M19-MEL melanoma; SK-MEL-28 melanoma; SK-MEL-5 melanoma; UACC-62 melanoma; DU-145 prostate; MDA-MB-231 breast.
Common to all, as to experiment: growth of human tumour cells (NCI), 48 h

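Exposure lasted 48 hours, with cells grown in 96-well plates and compounds tested at five concentrations. GI50: concentration for 50% inhibition of growth. TGI: total growth inhibition.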 Where only a bound is given, the exact number is not on record here.

Drawing on PubChem BioAssay (NCI), this text covers TGI and GI50 for 18 molecules.

Turning to `CC(C)OP(=O)(OC(C)C)C(=NCCN=C(NNc1ccc([N+](=O)[O-])cc1)P(=O)(OC(C)C)OC(C)C)NNc1ccc([N+](=O)[O-])cc1`, the TGI in the assay with ACHN renal was 66.5 µM; in the assay with DLD-1 colon it was greater than 100 µM; with HCT-15 colon it was greater than 100 µM; with LOX IMVI melanoma, greater than 100 µM; in the assay with M19-MEL melanoma it was greater than 100 µM; in the assay on SK-MEL-28 melanoma it was greater than 100 µM. The TGI in the assay on SK-MEL-5 melanoma was greater than 100 µM; in the assay on UACC-62 melanoma, 36.7 µM.

Consider `Nc1ncnc2c1nnn2C1OC(CO)C(O)C1O` (stereo not given), for which the GI50 in the assay with ACHN renal was 0.141 µM; with DU-145 prostate, 0.144 µM; in the assay on MDA-MB-231 breast it was 0.232 µM. The TGI turned out to be 8.84 µM with ACHN renal; 25.5 µM in the assay on DLD-1 colon; 1.91 µM in the assay on DU-145 prostate; 20.6 µM in the assay with HCT-15 colon; 3.77 µM in the assay with LOX IMVI melanoma; 39.2 µM in the assay with M19-MEL melanoma. Also, the TGI in the assay on MDA-MB-231 breast stood at 3.99 µM; with SK-MEL-28 melanoma it was 14.9 µM; in the assay with SK-MEL-5 melanoma, 5.63 µM; in the assay with UACC-62 melanoma, 4.72 µM.

On to `COc1cc2c(c(OC)c1OC)-c1ccc(OC)c(=O)cc1C(NC(=O)c1ccc(N=[N+]=[N-])cc1)CC2` (stereo not given), for which the TGI is greater than 100 µM in the assay with ACHN renal; greater than 100 µM in the assay with DLD-1 colon; 0.439 µM in the assay on DU-145 prostate; 0.561 µM in the assay on HCT-15 colon; 24.9 µM in the assay with LOX IMVI melanoma; greater than 73.2 µM with M19-MEL melanoma. Besides, the TGI in the assay with MDA-MB-231 breast is 12.5 µM; in the assay on SK-MEL-28 melanoma, greater than 100 µM; with SK-MEL-5 melanoma, 1.95 µM; in the assay on UACC-62 melanoma, 31.1 µM.

Regarding `CCCCCCN(CCCCCC)C(=O)Cc1c2n(c3ccccc13)Cc1ccccc1-2`, the TGI with ACHN renal, with DLD-1 colon, in the assay with HCT-15 colon, with LOX IMVI melanoma, in the assay on M19-MEL melanoma and in the assay with SK-MEL-28 melanoma was greater than 100 µM each time. Moreover, the TGI in the assay with SK-MEL-5 melanoma and in the assay on UACC-62 melanoma was greater than 100 µM throughout.

Regarding `CC(=O)/C(=C\c1cccc([N+](=O)[O-])c1)C(=O)Nc1ccccc1C`, the TGI in the assay on ACHN renal, in the assay with DLD-1 colon, in the assay with HCT-15 colon, in the assay on LOX IMVI melanoma, with M19-MEL melanoma and in the assay with SK-MEL-28 melanoma was greater than 100 µM each time. Further, the TGI in the assay with SK-MEL-5 melanoma and in the assay on UACC-62 melanoma was greater than 100 µM in each case.

`CN(C)c1nc(=Nc2ccc(N=c3nc(N(C)C)ss3)cc2)ss1`: the TGI in the assay with ACHN renal was greater than 100 µM; in the assay on DLD-1 colon it was 30.2 µM; in the assay with HCT-15 colon, greater than 100 µM; in the assay with LOX IMVI melanoma it was greater than 67.9 µM; in the assay with M19-MEL melanoma it was 40.1 µM; in the assay with SK-MEL-28 melanoma it was 33.6 µM. Also, the TGI was greater than 61.2 µM in the assay on SK-MEL-5 melanoma and greater than 21.3 µM in the assay on UACC-62 melanoma.

`COC(OC)C(C)CC(=O)N(C)C` (stereo not given): the TGI with ACHN renal, in the assay with DLD-1 colon, in the assay on HCT-15 colon, in the assay on LOX IMVI melanoma, in the assay with M19-MEL melanoma and in the assay on SK-MEL-28 melanoma was greater than 100 µM throughout. Further, the TGI with SK-MEL-5 melanoma and in the assay with UACC-62 melanoma was greater than 100 µM throughout.

Take `C/C(=N\NC(=S)NC(CCC(=O)O)C(=O)O)c1ccccn1` (stereo not given): the TGI in the assay with ACHN renal, in the assay with DLD-1 colon, in the assay on HCT-15 colon, in the assay with LOX IMVI melanoma, in the assay on M19-MEL melanoma and with SK-MEL-28 melanoma was greater than 100 µM each time. The TGI in the assay on SK-MEL-5 melanoma and in the assay on UACC-62 melanoma was greater than 100 µM in each case.

Regarding `CCOC(=O)NC(=O)c1cn(CCCO)c(=O)[nH]c1=O`, the TGI in the assay with ACHN renal, with DLD-1 colon, with HCT-15 colon, with LOX IMVI melanoma, with M19-MEL melanoma and in the assay on SK-MEL-28 melanoma was greater than 100 µM each time. Besides, the TGI in the assay with SK-MEL-5 melanoma and in the assay with UACC-62 melanoma was greater than 100 µM throughout.

Consider `CC1=CC(O)(c2ccc(-c3ccccc3Cl)cc2)OC1=O` (stereo not given), for which the TGI in the assay on ACHN renal, in the assay with DLD-1 colon, with HCT-15 colon, with LOX IMVI melanoma, in the assay on M19-MEL melanoma and in the assay on SK-MEL-28 melanoma was greater than 100 µM each time. Further, the TGI in the assay with SK-MEL-5 melanoma and in the assay with UACC-62 melanoma was greater than 100 µM in each case.

As for `CC(=O)OC1=CC(n2cc(F)c(=O)[nH]c2=O)OC(C)C1=O` (stereo not given), the TGI in the assay on ACHN renal, with DLD-1 colon, in the assay with DU-145 prostate, in the assay with HCT-15 colon, with LOX IMVI melanoma and in the assay with M19-MEL melanoma was greater than 100 µM throughout. The TGI with MDA-MB-231 breast, in the assay on SK-MEL-28 melanoma, in the assay with SK-MEL-5 melanoma and in the assay on UACC-62 melanoma was greater than 100 µM in each case.

As for `OCc1ccc(-c2ccc(-c3ccc(CO)s3)o2)s1`, the TGI was greater than 94.1 µM in the assay on ACHN renal; greater than 73.4 µM with DLD-1 colon; 66.5 µM in the assay on DU-145 prostate; 81 µM in the assay on HCT-15 colon; 79.7 µM in the assay with LOX IMVI melanoma; greater than 100 µM in the assay with M19-MEL melanoma. Moreover, the TGI in the assay with MDA-MB-231 breast is greater than 92.2 µM; in the assay on SK-MEL-28 melanoma, greater than 91.9 µM; in the assay with SK-MEL-5 melanoma, 69.7 µM; in the assay with UACC-62 melanoma, 0.154 µM.

For the molecule `C[Si](C)(C)C1(Sc2ccccc2)SCCCS1`, the TGI in the assay on ACHN renal, with DLD-1 colon, in the assay with HCT-15 colon, with LOX IMVI melanoma, in the assay on M19-MEL melanoma and in the assay with SK-MEL-28 melanoma was greater than 100 µM in each case. The TGI in the assay with SK-MEL-5 melanoma and in the assay with UACC-62 melanoma was greater than 100 µM each time.

In the case of `CSc1nc(NC2OCC(OC(C)=O)C(OC(C)=O)C2OC(C)=O)c(N=CC=Nc2c(NC3OCC(OC(C)=O)C(OC(C)=O)C3OC(C)=O)nc(SC)[nH]c2=O)c(=O)[nH]1` (stereo not given), the TGI is greater than 88.7 µM with ACHN renal; greater than 100 µM in the assay on DLD-1 colon; greater than 100 µM in the assay with DU-145 prostate; greater than 100 µM in the assay on HCT-15 colon; greater than 100 µM with LOX IMVI melanoma; greater than 100 µM in the assay with M19-MEL melanoma. Besides, the TGI in the assay on MDA-MB-231 breast, with SK-MEL-28 melanoma, with SK-MEL-5 melanoma and with UACC-62 melanoma was greater than 100 µM each time.

`CC(C)(C)OC(=O)N[C@H]1CC2(C=C(Cl)C(=O)C(Cl)=C2)OC1=O`: the TGI is 28.2 µM in the assay on ACHN renal; 13.4 µM in the assay with DLD-1 colon; 78.9 µM in the assay on DU-145 prostate; 34.9 µM in the assay on HCT-15 colon; 34.5 µM in the assay on LOX IMVI melanoma; 30.9 µM with M19-MEL melanoma. The TGI was found to be 33.8 µM with MDA-MB-231 breast, 25 µM in the assay on SK-MEL-28 melanoma, 38.5 µM in the assay with SK-MEL-5 melanoma and 30.6 µM in the assay on UACC-62 melanoma.

On to `O=C(/C=C\c1ccc(Cl)c(Cl)c1)c1ccc(Cl)cc1Cl`, for which the TGI is 31.6 µM in the assay on ACHN renal; 26.8 µM with DLD-1 colon; greater than 100 µM with HCT-15 colon; 18.2 µM in the assay on LOX IMVI melanoma; 81.1 µM in the assay with M19-MEL melanoma; 30.8 µM with SK-MEL-5 melanoma. For the same molecule, in the assay with UACC-62 melanoma, the TGI worked out at 35.6 µM. The figures for the GI50 in the assay on DLD-1 colon, in the assay on HCT-15 colon and in the assay on LOX IMVI melanoma were 12.6 µM, 58 µM and 2.05 µM, respectively.

As for `CCOC(=O)CC(=O)ON(C)C(C)=O`, the TGI with ACHN renal, in the assay on DLD-1 colon, in the assay on HCT-15 colon, in the assay with LOX IMVI melanoma, in the assay on M19-MEL melanoma and in the assay on SK-MEL-5 melanoma was greater than 100 µM in each case. Besides, the TGI in the assay with UACC-62 melanoma was greater than 100 µM.

Take `CC(C)=Cc1cc(C(=O)Nc2ccc(Cl)c(Cl)c2)nc(N)n1`: the TGI with ACHN renal, in the assay on DLD-1 colon, in the assay on HCT-15 colon, in the assay on LOX IMVI melanoma, with M19-MEL melanoma and in the assay on SK-MEL-28 melanoma was greater than 100 µM each time. The TGI in the assay with SK-MEL-5 melanoma and in the assay with UACC-62 melanoma was greater than 100 µM each time.
